From patent publication US9351931B2, “Pharmaceutical preparation for tumor chemotherapy and method for producing the same” (HUBEI SOUNDNY BIOTECHNOLOGY CO., LTD., priority 2012, dated 2016)

Columns and labels:
[1] = tested on: A2780 human ovarian carcinoma cells; assay: Co-culture killing of human ovarian carcinoma cells (Example 4); format: cell-based; details: pure drug, 100 μg cisplatin to 5×10^6 A2780 cells, 72 hours; FIG. 4E
Method: (§1) the third group of H22 mouse hepatoma cells and the third group of the A2780 human ovarian carcinoma cells are left without any treatment.
(§2) 4) half of the micro-particles taken from the above test group, and half of the cell vesicles taken from the control group are respectively co-cultured with 5×10^4 tumor cells taken from the third group of tumor cells of different types for 72 hours within a 24-pore plate, the death of the tumor cells is observed, wherein the cell vesicles that are co-cultured with the tumor cells are the cell vesicles derived from the same type of tumor cells, and the micro-particles that are co-cultured with the tumor cells are the micro-particles formed after the cell vesicles derived from the same type of tumor cells have the chemotherapeutic drug wrapped therein;

H22 mouse hepatoma cells = assay: Co-culture killing of mouse hepatoma cells (Example 4); format: cell-based; details: pure drug, 10 μg methotrexate to 5×10^6 H22 cells, 72 hours; FIG. 4B
Method: as §1, §2

| Compound | death of the tumor cells [1] | death of the tumor cells (H22 mouse hepatoma cells) |
| --- | --- | --- |
| N.N.[Cl][Pt][Cl] [cisplatin] | there are still certain amount of tumor cells survived |  |
| CN(Cc1cnc2nc(N)nc(N)c2n1)c1ccc(C(=O)N[C@@H](CCC(=O)O)C(=O)O)cc1 [methotrexate] |  | there are still certain amount of tumor cells survived |
